18 compounds from the Kinase Knowledgebase extract (Sharma et al. 2016) can be followed below.

The assay concerns the target MAPK14 (murine). Put plainly: Inhibition of MAPK14 Kinase Activity.
The term IC50 denotes the concentration needed to halve the response being measured. Read a low IC50 as greater potency. Consider `O=C(c1ccc(Nc2ccc(F)cc2F)nc1)c1ccccc1Cl`, for which the IC50 came to 0.101 µM.

As to `CC(C)(N)C#Cc1ccc(Cl)c(C(=O)c2ccc(Nc3ccc(F)cc3F)nc2)c1`, the IC50 came to 0.019 µM. For the compound `Cc1nc2cc(Cl)c(C(=O)c3ccc(Nc4ccc(F)cc4F)nc3)cc2[nH]1`, the IC50 amounted to 0.008 µM. The result for `Cc1nc2cc(Cl)c(C(=O)c3ccc(Nc4ccc(F)cc4F)cc3)cc2[nH]1` reads 0.0007 µM; that for `COc1ccc(C#CC(C)(C)N)cc1C(=O)c1ccc(Nc2ccc(F)cc2F)cc1`, 0.014 µM; that for `COc1ccccc1C(=O)c1ccc(Nc2ccc(F)cc2F)cc1`, 0.038 µM. As for `CC(C)(N)C#Cc1ccc(Cl)c(C(=O)c2ccc(Nc3ccc(F)cc3F)cc2)c1`, the half-maximal inhibitory concentration (IC50) stood at 0.006 µM. The result for `COc1ccc(C#CC(C)(C)N)cc1C(=O)c1ccc(Nc2ccc(F)cc2F)nc1` reads 0.008 µM. On to `COc1ccc(C#CC(C)(C)O)cc1C(=O)c1ccc(Nc2ccc(F)cc2F)nc1`, for which the IC50 came to 0.054 µM. The result for `COc1ccc(CCC(C)(C)N)cc1C(=O)c1ccc(Nc2ccc(F)cc2F)cc1` reads 0.113 µM; that for `COc1ccc(CCC(C)(C)O)cc1C(=O)c1ccc(Nc2ccc(F)cc2F)nc1`, 0.479 µM; that for `COc1ccc(/C=C/C2(O)CCN(C)CC2)cc1C(=O)c1ccc(Nc2ccc(F)cc2F)cc1`, 0.001 µM. In turn, `COc1cc2nc(C)[nH]c2cc1C(=O)c1ccc(Nc2ccc(F)cc2F)cc1` gave an IC50 of 0.005 µM. The compound `O=C(c1ccc(Nc2ccc(F)cc2F)nc1)c1cc(Br)ccc1Cl` registered an IC50 of 0.3 µM. `CC(C)(N)CCc1ccc(Cl)c(C(=O)c2ccc(Nc3ccc(F)cc3F)nc2)c1` registered a half-maximal inhibitory concentration (IC50) of 0.16 µM.

As to `O=C(c1ccc(Nc2ccc(F)cc2F)cc1)c1ccccc1Cl`, the IC50 amounted to 0.011 µM.

For `COc1ccc(CCC2(O)CCN(C)CC2)cc1C(=O)c1ccc(Nc2ccc(F)cc2F)cc1`, the IC50 stood at 0.051 µM. `COc1cc2nc(C)[nH]c2cc1C(=O)c1ccc(Nc2ccc(F)cc2F)nc1` returned an IC50 of 0.021 µM.
